Assay results published in PubChem BioAssay AID1259407 (Chemical Carcinogenesis Research Information System (CCRIS), 2018).
The source made the active and inactive calls. No rule for the calls is given here.

Tested on: CCRIS mutagenicity, Ames/micronucleus/aberration tests
Assay: CCRIS mutagenicity studies

## Nc1cc2c3ccccc3ccc2c2ccccc12
Test System: AMES SALMONELLA TYPHIMURIUM, Strain/Indicator: TA98 (1,8-DNP6), Metabolic Activation: RAT LIVER, CYTOSOL, AROCLOR 1254, Method: STANDARD PLATE
  mutagenic call: inactive; negative
Test System: AMES SALMONELLA TYPHIMURIUM, Strain/Indicator: TA98 (1,8-DNP6), Metabolic Activation: RAT LIVER, MICROSOMES, AROCLOR 1254, Method: STANDARD PLATE
  mutagenic call: active; positive
Test System: AMES SALMONELLA TYPHIMURIUM, Strain/Indicator: TA98, Metabolic Activation: FERRET, LIVER, CYTOSOL, Method: STANDARD PLATE
  mutagenic call: inactive; negative
Test System: AMES SALMONELLA TYPHIMURIUM, Strain/Indicator: TA98, Metabolic Activation: FERRET, LIVER, MICROSOMES, Method: STANDARD PLATE
  mutagenic call: inactive; negative
Test System: AMES SALMONELLA TYPHIMURIUM, Strain/Indicator: TA98, Metabolic Activation: HAMSTER, LIVER, CYTOSOL, Method: STANDARD PLATE
  mutagenic call: inactive; negative
Test System: AMES SALMONELLA TYPHIMURIUM, Strain/Indicator: TA98, Metabolic Activation: HAMSTER, LIVER, MICROSOMES, Method: STANDARD PLATE
  mutagenic call: active; positive
Test System: AMES SALMONELLA TYPHIMURIUM, Strain/Indicator: TA98, Metabolic Activation: HUMAN, LIVER, CYTOSOL, Method: STANDARD PLATE
  mutagenic call: active; positive
Test System: AMES SALMONELLA TYPHIMURIUM, Strain/Indicator: TA98, Metabolic Activation: NONE, Method: PREINCUBATION
  mutagenic call: active; positive
Test System: AMES SALMONELLA TYPHIMURIUM, Strain/Indicator: TA98, Metabolic Activation: PIG, LIVER, CYTOSOL, Method: STANDARD PLATE
  mutagenic call: active; positive
Test System: AMES SALMONELLA TYPHIMURIUM, Strain/Indicator: TA98, Metabolic Activation: PIG, LIVER, MICROSOMES, Method: STANDARD PLATE
  mutagenic call: inactive; negative
Test System: AMES SALMONELLA TYPHIMURIUM, Strain/Indicator: TA98, Metabolic Activation: RAT LIVER, CYTOSOL, AROCLOR 1254, Method: STANDARD PLATE
  mutagenic call: active; positive
Test System: AMES SALMONELLA TYPHIMURIUM, Strain/Indicator: TA98, Metabolic Activation: RAT LIVER, MICROSOMES, AROCLOR 1254, Method: STANDARD PLATE
  mutagenic call: active; positive
Test System: AMES SALMONELLA TYPHIMURIUM, Strain/Indicator: TA98, Metabolic Activation: RAT, LIVER, CYTOSOL, AROCLOR 1254, Method: STANDARD PLATE
  mutagenic call: active; positive
Test System: AMES SALMONELLA TYPHIMURIUM, Strain/Indicator: TA98, Metabolic Activation: RAT, LIVER, CYTOSOL, BENZO[A]PYRENE, Method: STANDARD PLATE
  mutagenic call: active; positive
Test System: AMES SALMONELLA TYPHIMURIUM, Strain/Indicator: TA98, Metabolic Activation: RAT, LIVER, CYTOSOL, CLOFIBRATE, Method: STANDARD PLATE
  mutagenic call: active; positive
Test System: AMES SALMONELLA TYPHIMURIUM, Strain/Indicator: TA98, Metabolic Activation: RAT, LIVER, CYTOSOL, DEXAMETHASONE, Method: STANDARD PLATE
  mutagenic call: active; positive
Test System: AMES SALMONELLA TYPHIMURIUM, Strain/Indicator: TA98, Metabolic Activation: RAT, LIVER, CYTOSOL, ISONIAZID, Method: STANDARD PLATE
  mutagenic call: active; positive
Test System: AMES SALMONELLA TYPHIMURIUM, Strain/Indicator: TA98, Metabolic Activation: RAT, LIVER, CYTOSOL, PHENOBARBITAL, Method: STANDARD PLATE
  mutagenic call: active; positive
Test System: AMES SALMONELLA TYPHIMURIUM, Strain/Indicator: TA98, Metabolic Activation: RAT, LIVER, MICROSOMES, AROCLOR 1254, Method: STANDARD PLATE
  mutagenic call: active; positive
Test System: AMES SALMONELLA TYPHIMURIUM, Strain/Indicator: TA98, Metabolic Activation: RAT, LIVER, MICROSOMES, BENZO[A]PYRENE, Method: STANDARD PLATE
  mutagenic call: active; positive
Test System: AMES SALMONELLA TYPHIMURIUM, Strain/Indicator: TA98, Metabolic Activation: RAT, LIVER, MICROSOMES, CLOFIBRATE, Method: STANDARD PLATE
  mutagenic call: active; positive
Test System: AMES SALMONELLA TYPHIMURIUM, Strain/Indicator: TA98, Metabolic Activation: RAT, LIVER, MICROSOMES, DEXAMETHASONE, Method: STANDARD PLATE
  mutagenic call: active; positive
Test System: AMES SALMONELLA TYPHIMURIUM, Strain/Indicator: TA98, Metabolic Activation: RAT, LIVER, MICROSOMES, ISONIAZID, Method: STANDARD PLATE
  mutagenic call: active; positive
Test System: AMES SALMONELLA TYPHIMURIUM, Strain/Indicator: TA98, Metabolic Activation: RAT, LIVER, MICROSOMES, PHENOBARBITAL, Method: STANDARD PLATE
  mutagenic call: active; positive
Test System: AMES SALMONELLA TYPHIMURIUM, Strain/Indicator: TA98, Metabolic Activation: RAT, LIVER, MICROSOMES, Method: STANDARD PLATE
  mutagenic call: active; positive
Test System: AMES SALMONELLA TYPHIMURIUM, Strain/Indicator: TA98, Metabolic Activation: RAT, LIVER, S-9, AROCLOR 1254, Method: PREINCUBATION
  mutagenic call: active; positive
Test System: AMES SALMONELLA TYPHIMURIUM, Strain/Indicator: TA100, Metabolic Activation: NONE, Method: PREINCUBATION
  mutagenic call: active; positive
Test System: AMES SALMONELLA TYPHIMURIUM, Strain/Indicator: TA100, Metabolic Activation: NONE, Method: STANDARD PLATE
  mutagenic call: inactive; negative
Test System: AMES SALMONELLA TYPHIMURIUM, Strain/Indicator: TA100, Metabolic Activation: RAT, LIVER, MICROSOMES, 6-AMINOCHRYSENE, Method: STANDARD PLATE
  mutagenic call: inactive; negative
Test System: AMES SALMONELLA TYPHIMURIUM, Strain/Indicator: TA100, Metabolic Activation: RAT, LIVER, MICROSOMES, AROCLOR 1254, Method: STANDARD PLATE
  mutagenic call: active; positive
Test System: AMES SALMONELLA TYPHIMURIUM, Strain/Indicator: TA100, Metabolic Activation: RAT, LIVER, MICROSOMES, Method: STANDARD PLATE
  mutagenic call: active; positive
Test System: AMES SALMONELLA TYPHIMURIUM, Strain/Indicator: TA100, Metabolic Activation: RAT, LIVER, S-9, AROCLOR 1254, Method: PREINCUBATION
  mutagenic call: active; positive
Test System: AMES SALMONELLA TYPHIMURIUM, Strain/Indicator: TA100, Metabolic Activation: RAT, LIVER, S-9, AROCLOR 1254, Method: STANDARD PLATE
  mutagenic call: active; positive
Test System: AMES SALMONELLA TYPHIMURIUM, Strain/Indicator: TA1535, Metabolic Activation: NONE, Method: STANDARD PLATE
  mutagenic call: inactive; negative
Test System: AMES SALMONELLA TYPHIMURIUM, Strain/Indicator: TA1535, Metabolic Activation: RAT, LIVER, S-9, AROCLOR 1254, Method: STANDARD PLATE
  mutagenic call: inactive; negative
Test System: AMES SALMONELLA TYPHIMURIUM, Strain/Indicator: TA1537, Metabolic Activation: NONE, Method: STANDARD PLATE
  mutagenic call: inactive; negative
Test System: AMES SALMONELLA TYPHIMURIUM, Strain/Indicator: TA1538, Metabolic Activation: NONE, Method: STANDARD PLATE
  mutagenic call: inactive; negative
Test System: CHINESE HAMSTER OVARY, Strain/Indicator: CHO-K1-BH4 (HGPRT)/6-THIOGUANINE, Metabolic Activation: NONE, Method: STANDARD PLATE
  mutagenic call: inactive; negative
Test System: CHINESE HAMSTER OVARY, Strain/Indicator: CHO-K1-BH4 (HGPRT)/6-THIOGUANINE, Metabolic Activation: RAT, LIVER, S-9, AROCLOR 1254, Method: STANDARD PLATE
  mutagenic call: active; positive
Test System: CHINESE HAMSTER OVARY, Strain/Indicator: CHO-UV5 (HGPRT)/6-THIOGUANINE, Metabolic Activation: NONE, Method: STANDARD PLATE
  mutagenic call: inactive; negative
Test System: CHINESE HAMSTER OVARY, Strain/Indicator: CHO-UV5 (HGPRT)/6-THIOGUANINE, Metabolic Activation: RAT, LIVER, S-9, AROCLOR 1254, Method: STANDARD PLATE
  mutagenic call: active; positive
Test System: UDS GUINEA PIG HEPATOCYTES, Strain/Indicator: THY INCORP, Metabolic Activation: NONE, Method: AUTORADIOGRAPHY
  mutagenic call: active; positive
Test System: UDS HUMAN HEPATOCYTES, Strain/Indicator: THY INCORP, Metabolic Activation: NONE, Method: AUTORADIOGRAPHY
  mutagenic call: active; positive
Test System: UDS MONKEY HEPATOCYTES, Strain/Indicator: THY INCORP, Metabolic Activation: NONE, Method: AUTORADIOGRAPHY
  mutagenic call: active; positive
Test System: UDS RAT HEPATOCYTES, Strain/Indicator: THY INCORP, Metabolic Activation: AROCLOR 1254, Method: AUTORADIOGRAPHY
  mutagenic call: active; positive
Test System: UDS RAT HEPATOCYTES, Strain/Indicator: THY INCORP, Metabolic Activation: NONE, Method: AUTORADIOGRAPHY
  mutagenic call: active; positive
